Experimental data reported in patent US7807439B2, “Staphylococcus aureus-specific detection media and identifying and/or counting method using same” (Biomerieux S.A., priority 2001, dated 2010).

Legend:
S. saprophyticus 009 = assay: Experiment 4: naphthol derivative substrates in API galleries, liquid medium; assay type: cell-based, Staphylococcus saprophyticus; parameters: key: the mark 0 corresponds to a negative reaction; marks 1, 2, 3 and 4 indicate intermediate levels of coloration and therefore of enzyme activity; marks 1, 2, 3 and 4 indicate intermediate levels of coloration and therefore of enzyme activity; marks 1, 2, 3 and 4 indicate intermediate levels of coloration and therefore of enzyme activity; marks 1, 2, 3 and 4 indicate intermediate levels of coloration and therefore of enzyme activity; the mark 5 to a reaction of maximum intensity; details: 4 hours of incubation at 37° C.
Experimental: (§1) The experiment below was carried out in a liquid medium and in the presence of naphthol derivative-based chromogenic substrates.
(§2) The medium and the substrates are distributed into API “galleries” (trademark) produced by the company bioMérieux at Marcy I'Etoile, France.
(§3) These “galleries” constitute a semi-quantitative method for searching for enzyme activities in microorganisms and make it possible to rapidly and simultaneously study nineteen enzyme activities. Each “gallery” comprises twenty cupules in which the solutions containing the enzyme substrates are distributed. The enzyme assays are carried out by distributing 65 μl of bacterial suspension at 5-6 McFarland into each cupule.
(§4) The intensity of coloration for each cupule is examined visually after 4 hours of incubation at 37° C. and after the addition of appropriate reagents: ZYM A (ref.: 70470) and ZYM B (ref.: 70480), which can be obtained from bioMérieux also mentioned above. The intensity of coloration will be directly proportional to the amount of substrate hydrolysed by the enzyme.
(§5) The values for the intensity of coloration are then marked on a results sheet according to the following classification: the mark 0 corresponds to a negative reaction, the mark 5 to a reaction of maximum intensity, marks 1, 2, 3 and 4 indicate intermediate levels of coloration and therefore of enzyme activity. More detailed information on this marking can be found in the API reading scale provided with the “galleries” of the same name.
(§6) The enzyme activity sought and the corresponding naphthol derivative substrates are described in table 6 below: […]

S. aureus 276 [1] = assay: as above; assay type: cell-based, Staphylococcus aureus; parameters: key to intensity of coloration (enzyme activity mark): the mark 0 corresponds to a negative reaction; marks 1, 2, 3 and 4 indicate intermediate levels of coloration and therefore of enzyme activity; marks 1, 2, 3 and 4 indicate intermediate levels of coloration and therefore of enzyme activity; marks 1, 2, 3 and 4 indicate intermediate levels of coloration and therefore of enzyme activity; marks 1, 2, 3 and 4 indicate intermediate levels of coloration and therefore of enzyme activity; the mark 5 to a reaction of maximum intensity; details: for intensity of coloration (enzyme activity mark): S. aureus 276, 4 hours of incubation at 37° C.
Experimental: as §1, §2, §3, §4, §5, §6

S. epidermidis 103 = assay: as above; assay type: cell-based, Staphylococcus epidermidis; parameters: key: the mark 0 corresponds to a negative reaction; marks 1, 2, 3 and 4 indicate intermediate levels of coloration and therefore of enzyme activity; marks 1, 2, 3 and 4 indicate intermediate levels of coloration and therefore of enzyme activity; marks 1, 2, 3 and 4 indicate intermediate levels of coloration and therefore of enzyme activity; marks 1, 2, 3 and 4 indicate intermediate levels of coloration and therefore of enzyme activity; the mark 5 to a reaction of maximum intensity; details: 4 hours of incubation at 37° C.
Experimental: as §1, §2, §3, §4, §5, §6

S. haemolyticus 137 = assay: as above; assay type: cell-based, Staphylococcus haemolyticus; parameters: key: the mark 0 corresponds to a negative reaction; marks 1, 2, 3 and 4 indicate intermediate levels of coloration and therefore of enzyme activity; marks 1, 2, 3 and 4 indicate intermediate levels of coloration and therefore of enzyme activity; marks 1, 2, 3 and 4 indicate intermediate levels of coloration and therefore of enzyme activity; marks 1, 2, 3 and 4 indicate intermediate levels of coloration and therefore of enzyme activity; the mark 5 to a reaction of maximum intensity; details: 4 hours of incubation at 37° C.
Experimental: as §1, §2, §3, §4, §5, §6

S. intermedius 075 [2] = assay: as above; assay type: cell-based, Staphylococcus intermedius; parameters: key: the mark 0 corresponds to a negative reaction; marks 1, 2, 3 and 4 indicate intermediate levels of coloration and therefore of enzyme activity; marks 1, 2, 3 and 4 indicate intermediate levels of coloration and therefore of enzyme activity; marks 1, 2, 3 and 4 indicate intermediate levels of coloration and therefore of enzyme activity; marks 1, 2, 3 and 4 indicate intermediate levels of coloration and therefore of enzyme activity; the mark 5 to a reaction of maximum intensity; details: 4 hours of incubation at 37° C.
Experimental: as §1, §2, §3, §4, §5, §6

Staphylococcal species = assay: Experiment 6: Staphylococcal growth in the presence of inhibitors; assay type: cell-based, Staphylococcus; details: inhibitors added to the medium, concentrations per mixture
α-glucosidase = assay: Experiment 6: detection of α-glucosidase activity in the presence of inhibitors; assay type: cell-based, Staphylococcus; details: inhibitors added to the medium, concentrations per mixture
S. xylosus 008 = assay: Experiment 5: fluorescent substrates in liquid medium, VITEK 2 reading; assay type: cell-based, Staphylococcus xylosus; details: substrate 200 mg/l, read over 19 hours
Experimental: (§7) The media below were prepared in the base of the medium described in experiment 1, but in the absence of agar and in the presence of a fluorescent substrate instead of a chromogenic substrate. […] The various liquid media are distributed into the cupules of a support the size of a bank card, specific for the automated VITEK 2 (trademark) system of the company bioMérieux. […] The results, given in table 9 below, represent the incubation time, in hours, required to obtain the maximum level of fluorescence which can be measured by the device: […]

S. aureus 070 = assay: as above; assay type: cell-based, Staphylococcus aureus; details: substrate 200 mg/l, read over 19 hours
Experimental: as §7

S. aureus 276 [3] = assay: as above; assay type: cell-based, Staphylococcus aureus; details: substrate 200 mg/l, read over 19 hours
Experimental: as §7

S. epidermidis 009 = assay: as above; assay type: cell-based, Staphylococcus epidermidis; details: substrate 200 mg/l, read over 19 hours
Experimental: as §7

S. intermedius 075 [4] = assay: as above; assay type: cell-based, Staphylococcus intermedius; details: substrate 200 mg/l, read over 19 hours
Experimental: as §7

S. saprophyticus 030 = assay: as above; assay type: cell-based, Staphylococcus saprophyticus; details: substrate 200 mg/l, read over 19 hours
Experimental: as §7

S. haemolyticus 131 = assay: as above; assay type: cell-based, Staphylococcus haemolyticus; details: substrate 200 mg/l, read over 19 hours
Experimental: as §7

[5] = test system: coagulase-positive staphylococcal strains; assay: Experiment 5: fluorescent substrates, summary for coagulase-positive strains; assay type: cell-based, Staphylococcus aureus and Staphylococcus intermedius
Experimental: as §7

[6] = test system: coagulase-negative strains; assay: Experiment 5: fluorescent substrates, summary for coagulase-negative strains; assay type: cell-based
Experimental: as §7

OC[C@H]1O[C@H](Oc2ccc3ccccc3c2)[C@H](O)[C@@H](O)[C@@H]1O [No 6, 2-naphthyl-α-D-glucopyranoside]
intensity of coloration (enzyme activity mark) (S. saprophyticus 009): 1 | intensity of coloration (enzyme activity mark) (S. aureus 276 [1]): 5 | α-glucosidase activity (S. aureus 276 [1]; Staphylococcus aureus strain, API gallery): strongly expressed | intensity of coloration (enzyme activity mark) (S. epidermidis 103): 1 | intensity of coloration (enzyme activity mark) (S. haemolyticus 137): 2 | intensity of coloration (enzyme activity mark) (S. intermedius 075 [2]): 1

C[C@H]1[C@H](NC(=O)/C(=N\OC(C)(C)C(=O)O)c2csc(N)n2)C(=O)N1S(=O)(=O)O [aztreonam]
Staphylococcal growth (Staphylococcal species): does not disturb the bacterial growth | effect on detection/expression of α-glucosidase (α-glucosidase): very slightly decreased

naphthol-β-D-glucuronide [No 5]
intensity of coloration (enzyme activity mark) (S. saprophyticus 009): 0 | intensity of coloration (enzyme activity mark) (S. aureus 276 [1]): 0 | intensity of coloration (enzyme activity mark) (S. epidermidis 103): 0 | intensity of coloration (enzyme activity mark) (S. haemolyticus 137): 0 | intensity of coloration (enzyme activity mark) (S. intermedius 075 [2]): 0

[Cl-].[Li+] [LiCl, lithium chloride]
Staphylococcal growth (Staphylococcal species): decreases

Cc1cc(=O)oc2cc(O[C@@H]3O[C@H](CO)[C@@H](O)[C@H](O)[C@H]3O)ccc12 [4-MU-β-GLU, 4-methylumbelliferyl-β-D-glucoside]
hours of incubation required to obtain the maximum level of fluorescence (S. xylosus 008): 9 h | hours of incubation required to obtain the maximum level of fluorescence (S. aureus 070): 4 h | hours of incubation required to obtain the maximum level of fluorescence (S. aureus 276 [3]): 6 h | hours of incubation required to obtain the maximum level of fluorescence (S. epidermidis 009): 8 h | hours of incubation required to obtain the maximum level of fluorescence (S. intermedius 075 [4]): 7 h | hours of incubation required to obtain the maximum level of fluorescence (S. saprophyticus 030): 9 h | hours of incubation required to obtain the maximum level of fluorescence (S. haemolyticus 131): 7 h

OC[C@H]1O[C@@H](Oc2ccc3cc(Br)ccc3c2)[C@H](O)[C@@H](O)[C@@H]1O [No 7, 6-bromo-2-naphtyl-β-D-glucopyranoside]
intensity of coloration (enzyme activity mark) (S. saprophyticus 009): 0 | intensity of coloration (enzyme activity mark) (S. aureus 276 [1]): 0 | intensity of coloration (enzyme activity mark) (S. epidermidis 103): 0 | intensity of coloration (enzyme activity mark) (S. haemolyticus 137): 0 | intensity of coloration (enzyme activity mark) (S. intermedius 075 [2]): 0

Cc1cc(=O)oc2cc(O[C@H]3O[C@H](CO)[C@@H](O)[C@H](O)[C@H]3O)ccc12 [4-MU-α-GLU, 4-methylumbelliferyl-α-D-glucoside]
hours of incubation required to obtain the maximum level of fluorescence (S. xylosus 008): 11 h | hours of incubation required to obtain the maximum level of fluorescence (S. aureus 070): 8 h | hours of incubation required to obtain the maximum level of fluorescence (S. aureus 276 [3]): 7 h | incubation time to obtain a maximum level of fluorescence [5]: < 8 h | hours of incubation required to obtain the maximum level of fluorescence (S. epidermidis 009): 19 h | hours of incubation required to obtain the maximum level of fluorescence (S. intermedius 075 [4]): 5 h | hours of incubation required to obtain the maximum level of fluorescence (S. saprophyticus 030): 19 h | hours of incubation required to obtain the maximum level of fluorescence (S. haemolyticus 131): 19 h | incubation time to obtain a maximum level of fluorescence [6]: > 10 h

OC[C@H]1O[C@@H](Oc2ccc3ccccc3c2)[C@H](O)[C@@H](O)[C@H]1O [No 4, 2-naphthyl-β-D-galactopyranoside]
intensity of coloration (enzyme activity mark) (S. saprophyticus 009): 3 | intensity of coloration (enzyme activity mark) (S. aureus 276 [1]): 0 | intensity of coloration (enzyme activity mark) (S. epidermidis 103): 0 | intensity of coloration (enzyme activity mark) (S. haemolyticus 137): 0 | intensity of coloration (enzyme activity mark) (S. intermedius 075 [2]): 3

colistin
Staphylococcal growth (Staphylococcal species): virtually no effect

O=P(O)(O)Oc1ccc2ccccc2c1 [No 2, 2-naphthyl-phosphate]
intensity of coloration (enzyme activity mark) (S. saprophyticus 009): 1 | intensity of coloration (enzyme activity mark) (S. aureus 276 [1]): 2 | intensity of coloration (enzyme activity mark) (S. epidermidis 103): 3 | intensity of coloration (enzyme activity mark) (S. haemolyticus 137): 0 | intensity of coloration (enzyme activity mark) (S. intermedius 075 [2]): 4

Cc1cc(=O)oc2cc(O[C@@H]3O[C@H](CO)[C@H](O)[C@H](O)[C@H]3O)ccc12 [4-MU-β-GAL, 4-methylumbelliferyl-β-D-galactoside]
hours of incubation required to obtain the maximum level of fluorescence (S. xylosus 008): 5 h | hours of incubation required to obtain the maximum level of fluorescence (S. aureus 070): 3 h | hours of incubation required to obtain the maximum level of fluorescence (S. aureus 276 [3]): 3 h | hours of incubation required to obtain the maximum level of fluorescence (S. epidermidis 009): 4 h | hours of incubation required to obtain the maximum level of fluorescence (S. intermedius 075 [4]): 2 h | hours of incubation required to obtain the maximum level of fluorescence (S. saprophyticus 030): 12 h | hours of incubation required to obtain the maximum level of fluorescence (S. haemolyticus 131): 12 h

Cc1cc(=O)oc2cc(O[C@@H]3O[C@H](C(=O)O)[C@@H](O)[C@H](O)[C@H]3O)ccc12 [4-MU-β-GUR, 4-methylumbelliferyl-β-D-glucuronide]
hours of incubation required to obtain the maximum level of fluorescence (S. xylosus 008): 5 h | hours of incubation required to obtain the maximum level of fluorescence (S. aureus 070): 3 h | hours of incubation required to obtain the maximum level of fluorescence (S. aureus 276 [3]): 3 h | hours of incubation required to obtain the maximum level of fluorescence (S. epidermidis 009): 4 h | hours of incubation required to obtain the maximum level of fluorescence (S. intermedius 075 [4]): 2 h | hours of incubation required to obtain the maximum level of fluorescence (S. saprophyticus 030): 19 h | hours of incubation required to obtain the maximum level of fluorescence (S. haemolyticus 131): 19 h

OC[C@H]1O[C@H](Oc2ccc3cc(Br)ccc3c2)[C@H](O)[C@@H](O)[C@H]1O [No 3, 6-bromo-2-naphthyl-α-D-galactopyranoside]
intensity of coloration (enzyme activity mark) (S. saprophyticus 009): 0 | intensity of coloration (enzyme activity mark) (S. aureus 276 [1]): 0 | intensity of coloration (enzyme activity mark) (S. epidermidis 103): 0 | intensity of coloration (enzyme activity mark) (S. haemolyticus 137): 0 | intensity of coloration (enzyme activity mark) (S. intermedius 075 [2]): 0
